This note sets out measurements from US10443044B2, “Generating cardiac progenitor cells from pluripotent stem cells using isoxazole or isoxazole like compounds” (IPS Heart, priority 2014, dated 2019).

Test [1] deals with Human iPSC line (ACS-1021). The experiment in a line: Generation of cardiac progenitor cells from human iPS cells and differentiation into three lineages. The class given is cell-based.
The test system of test [2] is IPS cells. The test can be described thus: miR microarray analysis. As to conditions: treated vs non-treated IPS cells. Format: cell-based, mouse. As to the method:
FIGS. 7A-7E show miR-microarray analysis of small molecule, isoxazole like compounds treated IPS vs non-treated IPS cells. Microarray analysis showing miR expression profile in non-treated IPS cells was quite different from small molecule treated IPS cells.
(§1) Approximately 60% treated iPS cells were positive for Nkx-2.5. Given that posttranscriptional regulation is crucial for gene expression and cell survival molecular phenotypic analysis was performed, Affymetrix array-based gene expression profiling further confirmed 2-3 folds downregulation of Dnmt1, Dnmt3b and Max gene associated protein which were associated with global DNA hypomethylation and myc dependent cell transformation (see Table 1). Additionally, there was a 2-3 fold concomitant upregulation in the CCL7, CXCR2, CXCR5, integral membrane protein 2A, and ephrin A3. (FIG. 6).

A further test relates to SiPS. The test can be described thus: Cell proliferation assay (MTS). The class given is cell-based, mouse. The note with it: treated vs non treated SiPS, p<0.01; listed as small molecule. The method, then: (§2) In order to direct SiPS towards cardiac lineage cells, they were treated with a small molecule (Isoxazole, 20 uM, Sigma-Aldrich or ISX-9, StemCell Technologies, Inc Vancouver, BC) for five days and analyzed for DNA methyltransferase (Dnmt) activity, cell proliferation, and cardiac gene expression.
The cell proliferation assay was performed with the use of the MTS [3-(4,5-dimethylthiazol-2-yl)-5-(3-carboxymethoxyphenyl)-2-(4-sulfophenyl)-2H-tetrazolium] assay according to the manufacturer's recommendations (Promega). The plates were read at 490 nm using an automated ELISA plate-reader for the quantity of formazan product which was directly proportional to the number of living cells in culture.

For test [3], the system named is IPS cells. The test can be described thus: Affymetrix array-based gene expression profiling. The class given is cell-based, mouse. The method, then: as §2, §1
Affymetrix array-based gene expression profiling further confirmed 2-3 folds downregulation of Dnmt1, Dnmt3b and Max gene associated protein which were associated with global DNA hypomethylation and myc dependent cell transformation. In addition, there was 2-3 folds concomitant upregulation of CCL7, CXCR2, CXCR5, integral membrane protein 2A, and EphrinA3.

Test [4] concerns DNA methyltransferase (DNMT). The test can be described thus: DNA methyltransferase (DNMT) activity assay in small molecule treated SiPS. The class given is cell-based, mouse. As to the method: as §2
Nuclear extracts were isolated using the NE-PER Nuclear and Cytoplasmic Extraction Kit (Thermo Scientific, IL USA). Total DNMT activity was determined using an EpiQuik DNA methyltransferase activity assay kit (Epigentek, Brooklyn, N.Y.) per manufacturer's protocol. Enzyme activity for samples and controls was measured on a microplate reader (Hidex Chameleon, Finland) at 450 nm and DNMT activity (OD/h/ml) was calculated according to the formula: (Sample OD−blank OD)/(sample volume)×1000.

The next test has as its system Gαi. The experiment in a line: Western blot of Gα protein (GPCR signaling). The class given is cell-based, mouse. (In general: Immunoblotting shows a protein as a band on a membrane.)
Test [5] deals with IPS cells. The test can be described thus: Cytochrome c translocation to cytoplasm after H2O2, immunostaining. Format: cell-based, mouse. As to conditions: after exposure to H2O2 (100 μmol), vs non-treated IPS cells. As to the method:
Immunostaining of cytochrome c in non-treated and small molecule, isoxazole or isoxazole like compounds treated IPS cells after exposure to H2O2 ([…]), (merged images with DAPI), (original magnifications; 200×).
as §2

Another test deals with Nkx-2.5. The test can be described thus: Cardiac gene expression, RT-PCR and immunostaining. Format: cell-based, mouse. The method, then:
as §2
Total RNA from small molecule treated and non-treated SiPS cells was isolated using RNeasy mini kit (Qiagen, Maryland, USA) and Omniscript Reverse Transcription kit (Qiagen, Maryland, USA) was used for the respective cDNA synthesis per manufacturer's instructions. […] PCR conditions included initial denaturation at 95° C. for 4 minutes, 32 cycles of denaturation at 95° C. for 1 minute, annealing at 55° C. for 1 minute, extension at 72° C. for 1 minute and final extension at 72° C. for 7 minutes. The PCR products were separated on 1.5% agarose gel, stained with ethidium bromide and visualized and photographed on a UV transluminator (Bio-Rad, USA).
For immunocytochemistry, differentiated colonies of SiPS were immunostained with respective specific primary antibodies (anti-Oct3/4, anti-Sox2, anti-Nanog antibodies, all at 1:100 concentration; Cell Signaling, Danvers, USA). […] The primary antibody-antigen reaction was detected with fluorescently conjugated specific secondary antibodies. […] Fluorescence signals were observed and photographed using fluorescence microscopy (Olympus; Tokyo, Japan).

Test [6] has as its system IPS cells. The experiment in a line: Oxidant induced apoptosis, TUNEL assay. The note with it: pretreated IPS vs non-treated IPS, listed as small molecule. The class given is cell-based, mouse. The method, then:
In FIG. 3A, apoptosis was determined by TUNEL assay. […] All values were expressed as mean±SEM, * p<0.05 vs. control.
as §2

For test [7], the system named is Skeletal myoblasts (SMs) from Oct3/4-GFP+ transgenic mouse. The test can be described thus: Reprogramming of skeletal myoblasts to iPS cells. Format: cell-based. The note with it: 500 μM in 0.5% DMSO, 5-days; two weeks later. As to the method: Skeletal myoblasts (SMs) purified from young male Oct3/4-GFP^+ transgenic mouse were treated with DNA methyltransferase inhibitor 500 μM RG-108 in 0.5% DMSO in knock out DMEM for 5-days. […] Although the research described herein was conducted in a murine model, the use of the same markers and agents will provide similar if not identical results in human cells and tissue.

The mark [8] stands for this setting: basal differentiation conditions.
The mark [9] stands for this setting: hiPSC, 7 day small molecule treatment.
[10] abbreviates: Affymetrix array, treated vs non-treated iPS cells.
The mark [11] stands for this setting: IPs + Small Molecule, regulation down.
Where [12] appears, read: IPs + Small Molecule, regulation up.

Entries after “also recorded” stand apart in the source; their conditions may differ.

For `O=C(NC1CC1)c1cc(-c2cccs2)on1` [ISX-9, N-cyclopropyl-5-thiophen-2-yl-1,2-oxazole-3-carboxamide], the “expression of CPC markers including Nkx2.5 and GATA4, RT-PCR and immunostaining” value in test [1] (20 μM, 7 days, RPMI/B27 minus insulin) was “observed”. Besides, the “spontaneous beating (cardiomyocyte differentiation)” value in test [1] (7 days treatment, then RPMI/B27 with insulin 7-10 days, end of 20 days) is given as “all the cells began spontaneous beating”. Also, in test [1] (setting [8]), the “percentage of CMs (TnT+) from Nkx2.5+ cells” value turned out to be 95.2±2.1%, the “percentage of ECs (CD31+) from Nkx2.5+ cells” value came out at 90.3±2.5% and the “percentage of SMCs (α-SMA+) from Nkx2.5+ cells” value was 92.3±1.8%. Also, in test [1] (setting [9]), the “purity of Nkx2.5 positive cells by FACS” value is listed as 96.5±2.5%; the “transcription factors (Nkx2.5, GATA4 and ISL-1), immunofluorescence staining” value is listed as “highly expressed”. Moreover, the “α-SMA and calponin expression, immunostaining” value in test [1] (induced CPC in DMEM-F12 with TGFβ and PDGFBB, 10 days) is on record as “observed”. Further, the “endothelial cell markers CD31 and VE-cadherin” value in [1] (induced CPC in EGM-2 medium, 10 days) was “expressed”. The “converting iPSC into cardiac progenitors including endothelial/vascular progenitors and smooth muscle cells” value in test [1] (overall conclusion) is listed as “very effective”. Besides, in the test on IPS cells [2], the “cardiac specific miR-133, miR-762 expression” value is listed as “upregulation”; the “pluripotency associated miR-290 cluster, miR-574-5p and let-7 family expression” value is reported as “down regulation”. In the test on SiPS, the “proliferative activity / mitogenic response” value was “increased proliferative activity; also recorded: increase in mitogenic response”. In addition, in the test with IPS cells [3] (setting [10]), the “downregulation of Dnmt1, Dnmt3b and Max gene associated protein” value is reported as 2-3 folds; the “upregulation of CCL7, CXCL2, CXCL5, integral membrane protein 2A and ephrin A3” value is 2-3 fold. In addition, in the test on IPS cells [3] (setting [11]), the “Fold change Dnmt1, DNA methyltransferase” value is recorded as −1.612 fold; the “Fold change Dnmt3b, DNA methyltransferase 3B” value was −1.282 fold; the “Fold change Mga, MAX gene associated protein” value is −1.104 fold. In addition, in the test with IPS cells [3] (setting [12]), the “Fold change Ccl7, chemokine (C-C motif) ligand 7” value is listed as 3.316 fold; the “Fold change Cox6b1, cytochrome c oxidase subunit VIb polypeptide 1” value is given as 2.546 fold; the “Fold change Cox16, COX16 cytochrome c oxidase assembly homolog” value worked out at 3.006 fold; the “Fold change Cxcl2, chemokine (C-X-C motif) ligand 2” value was determined as 2.732 fold. In the test with IPS cells [3] (setting [12]), the “Fold change Cxcl5, chemokine (C-X-C motif) ligand 5” value worked out at 2.137 fold; the “Fold change Efna3, ephrin A3” value is given as 2.088 fold; the “Fold change Itm2a, integral membrane protein 2A” value is on record as 2.255 fold; the “Fold change Itm2b, integral membrane protein 2B” value was determined as 2.18 fold. In addition, the “Fold change Uqcr10, ubiquinol-cytochrome c reductase complex III subunit X” value in the test on IPS cells [3] (setting [12]) is recorded as 2.298 fold. Further, the DNMT activity entry in [4] (SiPS, 20 uM, five days) is reported as “completely abolished”. Besides, the “reduction in global DNA methylation” value in [4] (SiPS, 20 uM, five days, FIG. 2) is 95%. Moreover, in test [4] (treated IPS cells vs nontreated IPS cells, FIG. 2), the “inhibition of DNA methyltransferase activity” value amounted to 95%. Moreover, in the test with Gαi (Western blot, treated vs untreated IPS cells), the “Gαi / Gα (pan) protein level” value is “significant upregulation”. In addition, the “cytochrome c translocation to cytoplasm” value with IPS cells [5] is “significant decrease”. Also, the “treated iPS cells positive for Nkx-2.5” value in the test with Nkx-2.5 (SiPS, 20 uM, five days) is reported as “Approximately 60%”. Besides, in the test on Nkx-2.5 (treated vs non treated IPS, p<0.01), the “Nkx-2.5 expression, RT-PCR” value is “significant upregulation”. The “apoptosis (TUNEL positive cells)” value in the test with IPS cells [6] is “tolerant to apoptosis; also recorded: reduced the apoptosis; also recorded: Fewer TUNEL positive cells/microscopic field”.
Take `O=C(O)C(Cc1c[nH]c2ccccc12)N1C(=O)c2ccccc2C1=O` [RG-108, N-phthalyl-L-tryptopha]: the “generation of iPS cell colonies” value in [7] is listed as “GFP^+ colonies of SM derived iPS cells (SiPS)”.
With pertussis toxin, the “effect on small molecule induced Gα (pan) upregulation” value with Gαi (concomitant use with small molecule in IPS cells) is “blocked”.
